From patent publication US7777038B2, “Carbostyril compound” (Otsuka Pharmaceutical Co., Ltd., priority 2004, dated 2010)

Legend:
[1] = system: human Trefoil Factor 2 (hTFF2) gene; experiment: hTFF2 gene reporter assay (luciferase) using pGL3-hTFF2pro•pWL-neo/MKN-45 #6-2 cell line; assay type: cell-based; conditions: test compound concentration 10^−6 M; 24 hours culture; luciferase activity as control % of dimethylsulfoxide-added wells (100%)
Protocol: Transcription promoting activity on human Trefoil Factor 2 (hTFF2) gene of test compounds was evaluated by means of an hTFF2 gene reporter assay.
(1) Preparation of hTFF2 Gene Reporter Vector pGL3-hTFF2pro
DNA was extracted from HeLa cells (CCL-2, DAINIPPON PHARMACEUTICAL CO., LTD.) using a deoxyribonucleic acid (DNA) extraction kit (DNeasy™ Tissue Kit, manufactured by QIAGEN). The hTFF2 promoter region was amplified using the extracted DNA as a template by means of the polymerase chain reaction (PCR). The oligomers 5′-[…]-3′ and 5′-[…]-3′ were selected as PCR primers to be amplified, based on the report by Beck et al. (Beck S., Sommer P., Blin N., Gott P., 5′-flanking motifs control cell-specific expression of trefoil factor genes (TFF), Int. J. Mol. Med. 2(3), 353-361 (1998)). Platinum® Pfx DNA polymerase was used as DNA polymerase. The PCR was performed under the conditions of denaturing for 30 seconds at 95° C., annealing for 30 seconds at 55° C. and extending for 75 seconds at 68° C., and the procedures were repeated for 32 cycles.
The PCR products were separated and purified by 1% agarose gel electrophoresis, and cloned to a pCR-BluntII-TOPO vector attached to a cloning kit (Zero Blunt® TOPO® PCR Cloning Kit, manufactured by Invitrogen Corporation). The produced plasmid pCR-Blunt-TFF2pro was introduced into E. coli for transformation (TOP 10 Ultracomp™ Cells, manufactured by Invitrogen Corporation), and transformant strain pCR-Blunt-TFF2pro/TOP10 was selectively cultured in LB agar medium containing 30 μg/ml of Zeocin (Zeocin, manufactured by Invitrogen Corporation). The pCR-Blunt-TFF2pro/TOP10 was subjected to shaking culture in 50 ml of LB medium containing 30 μg/ml of Zeocin at 37° C. over night, and a plasmid was prepared using a plasmid preparation kit (Concert™ High Purity Midiprep System, manufactured by GIBCO BRL).
The nucleotide sequence of the PCR product cloned to the plasmid pCR-Blunt-TFF2pro was determined. The determined nucleotide sequence was compared with the counterpart of hTFF2 promoter region reported in a gene bank (GenBank accession AB038162). The nucleotide sequence of the MluI-HindIII region cloned in pCR-Blunt-TFF2pro was identical to GenBank accession AB038162 (FIG. 1).
The underlined portions indicate the recognition sequence (ACGCGT) of the restriction enzyme MluI and the recognition sequence (AAGCTT) of the restriction enzyme HindIII. The nucleotide sequences of the MluI-HindIII region are identical between the hTFF2 promoter region reported in GenBank and the PCR product cloned to the plasmid pCR-Blunt-TFF2pro. […]

Row | SMILES | melting point | TFF2 Production Promoting Activity [1]
1 | Cl.O=C1NC(=S)SC1Cc1cccc2c1CCC(=O)N2Cc1ccc(Cl)nc1 (centres unmarked) | 70 to 80 °C | –
2 | COc1ccc(CCC2SC(=O)NC2=O)c2ccc(=O)n(C)c12 (centres unmarked) [Example 2, 5-[2-(8-methoxy-1-methyl-2-oxo-1,2-dihydroquinolin-5-yl)ethyl]thiazolidine-2,4-dione] | 222 to 224 °C | –
3 | COc1ccc(CCCC2SC(=O)NC2=O)c2ccc(=O)n(C)c12 (centres unmarked) [Example 3, 5-[3-(8-methoxy-1-methyl-2-oxo-1,2-dihydroquinolin-5-yl)propyl]thiazolidine-2,4-dione] | 172 to 175 °C | –
4 | COc1ccc(C2SC(=O)NC2=O)c2ccc(=O)n(C)c12 (centres unmarked) [Example 4, 5-(8-methoxy-1-methyl-2-oxo-1,2-dihydroquinolin-5-yl)thiazolidine-2,4-dione] | 255 °C (dec.) | –
5 | COc1ccc(C=C2SC(=O)NC2=O)c2ccc(=O)n(C)c12 [Example 9, 5-[1-(8-Methoxy-1-methyl-2-oxo-1,2-dihydroquinolin-5-yl)methylidene]thiazolidine-2,4-dione] | ≥ 300 °C | –
6 | COc1ccc(C=C2SC(=O)N(C)C2=O)c2ccc(=O)n(C)c12 [Example 10, 5-[1-(8-Methoxy-1-methyl-2-oxo-1,2-dihydroquinolin-5-yl)methylidene]-3-methylthiazolidine-2,4-dione] | 270 °C (dec.) | –
7 | O=C1NC(=O)C(Cc2cc(=O)n(Cc3ccc(Cl)cc3)c3ccccc23)S1 (centres unmarked) [Example 14, 5-[1-(4-chlorobenzyl)-2-oxo-1,2-dihydroquinolin-4-ylmethyl]thiazolidine-2,4-dione] | 142.1 to 143.7 °C | –
8 | O=C1NC(=O)C(Cc2cc3ccccc3n(Cc3ccc(-c4ccccc4)cc3)c2=O)S1 (centres unmarked) [Example 17, 5-[1-(Biphenyl-4-ylmethyl)-2-oxo-1,2-dihydroquinolin-3-ylmethyl]thiazolidine-2,4-dione] | 220.4 to 221.8 °C | –
9 | O=C1NC(=O)C(Cc2ccc3c(c2)N(Cc2ccc(-c4ccccc4)cc2)C(=O)CC3)S1 (centres unmarked) [Example 18, 5-[1-(Biphenyl-4-ylmethyl)-2-oxo-1,2,3,4-tetrahydroquinolin-7-ylmethyl]thiazolidine-2,4-dione] | 213.2 to 213.7 °C | –
10 | COc1ccc(CC2SC(=O)NC2=O)c2c1N(Cc1ccc([N+](=O)[O-])cc1)C(=O)CC2 (centres unmarked) [Example 20, 5-[8-methoxy-1-(4-nitrobenzyl)-2-oxo-1,2,3,4-tetrahydroquinolin-5-ylmethyl]thiazolidine-2,4-dione] | 246.5 to 246.6 °C | –
11 | COc1ccc(CC2SC(=O)NC2=O)c2c1N(Cc1ccc(N)cc1)C(=O)CC2 (centres unmarked) [Example 21, 5-[1-(4-aminobenzyl)-8-methoxy-2-oxo-1,2,3,4-tetrahydroquinolin-5-ylmethyl]thiazolidine-2,4-dione] | 174.1 to 174.8 °C | –
12 | COc1ccc(CC2SC(=O)NC2=O)c2c1N(Cc1ccc(NC(=O)c3ccc4ccccc4c3)cc1)C(=O)CC2 (centres unmarked) [Example 22, 5-{8-methoxy-1-[4-(2-naphthoylamino)benzyl]-2-oxo-1,2,3,4-tetrahydroquinolin-5-ylmethyl}thiazolidine-2,4-dione] | – | ++ (a TFF2 production promoting activity of 1000% or higher at a test compound concentration of 10^−6 M)
13 | CCCCCOC(=O)Nc1ccc(CN2C(=O)CCc3c(CC4SC(=O)NC4=O)ccc(OC)c32)cc1 (centres unmarked) [Example 23, 5-[1-(4-pentyloxycarbonylaminobenzyl)-8-methoxy-2-oxo-1,2,3,4-tetrahydroquinolin-5-ylmethyl]thiazolidine-2,4-dione] | 98 to 102 °C | –
14 | CCCCOc1ccc(CC2SC(=O)NC2=O)c2c1N(Cc1ccccc1)C(=O)CC2 (centres unmarked) [Example 32, 5-(1-benzyl-8-butoxy-2-oxo-1,2,3,4-tetrahydroquinolin-5-ylmethyl)thiazolidine-2,4-dione] | – | + (a TFF2 production promoting activity of 300% or higher at a test compound concentration of 10^−6 M)

Second part, led by results:

Row | melting point | SMILES | TFF2 Production Promoting Activity [1]
15 | 243 to 244 °C | COc1ccc(CC2SC(=O)NC2=O)c2c1N(Cc1ccc(C(=O)Nc3ccc(C(C)C)cc3)cc1)C(=O)CC2 (centres unmarked) [Example 27, 5-{1-[4-(4-isopropylphenylaminocarbonyl)benzyl]-8-methoxy-2-oxo-1,2,3,4-tetrahydroquinolin-5-ylmethyl}thiazolidine-2,4-dione] | –
16 | 213.2 to 213.7 °C | O=C1NC(=O)C(Cc2ccc(O)c3c2CCC(=O)N3Cc2ccccc2)S1 (centres unmarked) [Example 31, 5-(1-benzyl-8-hydroxy-2-oxo-1,2,3,4-tetrahydroquinolin-5-ylmethyl)thiazolidine-2,4-dione] | –
17 | 251 to 255 °C | COc1ccc(CC2SC(=O)NC2=O)c2c1N(CC(=O)O)C(=O)CC2 (centres unmarked) [Example 34, 5-(1-carboxymethyl-8-methoxy-2-oxo-1,2,3,4-tetrahydroquinolin-5-ylmethyl)thiazolidine-2,4-dione] | –
18 | 182 to 184 °C | COC(=O)CN1C(=O)SC(Cc2ccc(OC)c3c2ccc(=O)n3C)C1=O (centres unmarked) [Example 43, 3-methoxycarbonylmethyl-5-(8-methoxy-1-methyl-2-oxo-1,2-dihydroquinolin-5-ylmethyl)thiazolidine-2,4-dione] | –
19 | 186.3 to 187.1 °C | O=C1NC(=S)SC1Cc1cccc2c1CCC(=O)N2Cc1ccc(-c2ccccc2)cc1 (centres unmarked) [Example 46, 1-(biphenyl-4-ylmethyl)-5-(4-oxo-2-thioxothiazolidin-5-ylmethyl)-3,4-dihydro-1H-quinolin-2-one] | –
20 | 191.3 to 192.1 °C | O=C1NC(=S)SC1Cc1cccc2c1CCC(=O)N2Cc1ccc(Br)cc1 (centres unmarked) [Example 47, 1-(4-bromobenzyl)-5-(4-oxo-2-thioxothiazolidin-5-ylmethyl)-3,4-dihydro-1H-quinolin-2-one] | –
21 | 290 to 291 °C | O=C1NC(=O)C(Cc2cc(=O)[nH]c3ccccc23)S1 (centres unmarked) [Example 111] | –
22 | 246 to 248 °C | Cn1c(=O)cc(CC2SC(=O)NC2=O)c2ccccc21 (centres unmarked) [Example 112] | –
23 | 143 to 145 °C | CN1C(=O)SC(Cc2cc(=O)n(C)c3ccccc23)C1=O (centres unmarked) [Example 113] | –
24 | 204 to 208 °C | COc1ccc(CC2SC(=O)NC2=O)c2c1N(C)C(=O)CC2 (centres unmarked) [Example 145] | –
25 | 253 to 256 °C | COc1ccc(CC2SC(=O)NC2=O)c2c1NC(=O)CC2 (centres unmarked) [Example 146] | –
26 | 179 to 181 °C | CCN1C(=O)CCc2c(CC3SC(=O)NC3=O)ccc(OC)c21 (centres unmarked) [Example 147] | –
27 | 195.7 to 196.9 °C | CCNC(=O)Nc1ccc(CN2C(=O)CCc3c(CC4SC(=O)NC4=O)ccc(OC)c32)cc1 (centres unmarked) [Example 227] | –
28 | 198.3 to 200.3 °C | CCC(=O)Nc1ccc(CN2C(=O)CCc3c(CC4SC(=O)NC4=O)ccc(OC)c32)cc1 (centres unmarked) [Example 228] | –
29 | 215.2 to 217.8 °C | COc1ccc(CC2SC(=O)NC2=O)c2c1N(Cc1ccc(NC(C)=O)cc1)C(=O)CC2 (centres unmarked) [Example 229] | –
30 | 136.3 to 138.6 °C | COC(=O)Nc1ccc(CN2C(=O)CCc3c(CC4SC(=O)NC4=O)ccc(OC)c32)cc1 (centres unmarked) [Example 230] | –
31 | 233 to 234.2 °C | COc1ccc(CC2SC(=O)NC2=O)c2c1N(Cc1ccc(NC(=O)c3cccnc3)cc1)C(=O)CC2 (centres unmarked) [Example 231] | –
32 | 209.5 to 211 °C | CC(=O)N1CCC(CCN2C(=O)CCc3c(CC4SC(=O)NC4=O)cccc32)CC1 (centres unmarked) [Example 614] | –
